Patent US6517839B1, “Methods for inducing interleukin-12 and a type1/Th1 T-cell response” (priority 1997, dated 2003)

Test system: THP-1 cells
Assay: IL-12 p40 release from THP-1 cells, measured by ELISA of 20 h supernatants
Type: cell-based, human
Conditions: for IL-12 p40 release: Example 7, FIG. 10, THP-1 20 h

38 kDa lipoprotein: M. tuberculosis 38 kDa lipoprotein antigen; migrates as 39 kDa band
IL-12 p40 release (monocyte Western blot) (Example 4, FIG. 7, solubilized gel regions of Rotofor fraction #4, average of four experiments): some contribution

recombinant 19 kDa expressed in E. coli: recombinant form of the M. tuberculosis 19 kDa antigen expressed in E. coli
IL-12 p40 release: failed to induce any IL-12 p40

recombinant 19 kDa expressed in M. vaccae: recombinant form of the M. tuberculosis 19 kDa antigen expressed in a mycobacterial system, M. vaccae
IL-12 p40 release: stimulated IL-12 p40 release in an equivalent manner
